Data on 18 molecules can be found in patent publication US9963455B2, “Pyrazolo[1,5-a]pyrimidines as antiviral compounds” (Curovir AB, priority 2014, dated 2018).

Molecules are shown by their SMILES. Read-outs that look alike come from different tables or passages of the source.

Type in all cases: cell-based
The test system of experiment [1] is polio virus strain 1. Kind of experiment: microbe, parasite or virus in culture. Also on record: inhibition: dose or concentration left out as unconfirmed. The settings on record: read-out: antiviral effect, Polio 1.
In experiment [2] the test system is Ljungan virus strain 012. Kind of experiment: CPE inhibition in mammalian cell culture, LV012. The settings on record: Parechovirus B; for inhibition at 100 µM: Conc. 0.1 mM.
Experiment [3] concerns coxsackie B virus strain 5. Kind of experiment: CPE inhibition in mammalian cell culture, Cox-B5. Also on record: inhibition: dose or concentration left out as unconfirmed. The note with it: read-out: antiviral effect, B5.
The subject of experiment [4] is Ljungan virus strain 145. Kind of experiment: CPE inhibition in mammalian cell culture, LV145. The settings on record: Parechovirus B; for inhibition at 100 µM: Conc. 0.1 mM. Also on record: inhibition: dose or concentration left out as unconfirmed.
Experiment [5] concerns coxsackie B virus strain 1. Kind of experiment: CPE inhibition in mammalian cell culture, Cox-B1. The arrangement: inhibition: dose or concentration left out as unconfirmed.
Experiment [6] deals with coxsackie B virus strain 3. The experiment can be described thus: CPE inhibition in mammalian cell culture, Cox-B3. Also on record: inhibition: dose or concentration left out as unconfirmed.
In experiment [7] the test system is encephalomyocarditis virus. The experiment can be described thus: CPE inhibition in mammalian cell culture, EMCV. The arrangement: inhibition: dose or concentration left out as unconfirmed. The settings on record: Cardiovirus A; for inhibition at 100 µM: Conc. 0.1 mM; for inhibition at 10 µM: Conc. 10.0 μM.
Experiment [8] has as its system Enterovirus strain 30. The experiment can be described thus: CPE inhibition in mammalian cell culture, EV30. The arrangement: inhibition: dose or concentration left out as unconfirmed. The settings on record: for inhibition at 2.5 µM: Conc. 2.5 µM.
Experiment [9] has as its system coxsackie B virus strain 2. Kind of experiment: CPE inhibition in mammalian cell culture, Cox-B2. The settings on record: read-out: antiviral effect, B2. The arrangement: inhibition: dose or concentration left out as unconfirmed.
Experiment [10] has as its system Human parechovirus strain 1. Kind of experiment: CPE inhibition in mammalian cell culture, HPeV-1. The settings on record: Parechovirus A; for inhibition at 2.5 µM: Conc. 2.5 µM.
The test system of experiment [11] is Enterovirus strain 6. The experiment can be described thus: microbe, parasite or virus in culture. The arrangement: inhibition: dose or concentration left out as unconfirmed. The note with it: Conc., read-out: antiviral effect, EV6.
The test system of experiment [12] is coxsackie B virus strain 4. Kind of experiment: CPE inhibition in mammalian cell culture, Cox-B4.
Experiment [13] relates to Enterovirus strain 71. Kind of experiment: CPE inhibition in mammalian cell culture, EV71. Also on record: inhibition: dose or concentration left out as unconfirmed. The settings on record: read-out: antiviral effect, EV71.
Setting [14] is: read-out: antiviral effect, LV012.
The mark [15] stands for this setting: read-out: antiviral effect, LV145.
Where [16] appears, read: read-out: antiviral effect, EMCV.
Where [17] appears, read: read-out: antiviral effect, EV30.
Setting [18] is: HPeV-1, Conc. 10.0 μM, read-out: % inh.
Setting [19] is: Conc. 2.5 µM, read-out: antiviral effect, LV012.
The mark [20] stands for this setting: read-out: antiviral effect, HPeV-1.

With `COc1ccc(-c2c(C)nn3c(NCc4ccc(C)nc4)cc(C)nc23)cc1OC` [Ex. 92, 3-(3,4-dimethoxyphenyl)-2,5-dimethyl-N-[(6-methyl-3-pyridyl)methyl]pyrazolo[1,5-a]pyrimidin-7-amine], the inhibition worked out at 98% in experiment [1]; 95% in [3]; 100% in experiment [5] (read-out: antiviral effect, B1); 100% in experiment [6] (read-out: antiviral effect, B3); 100% in experiment [8] (setting [17]); 96% in experiment [9]. For the same molecule, the inhibition at 100 µM in [2] (setting [14]), in experiment [4] (setting [15]) and in experiment [7] (setting [16]) was 0% each time. The inhibition at 0.01 µM in experiment [6] (read-out: % inh.) is 100%.

As for `COc1ccc(-c2c(C)nn3c(NCCc4ccc(Cl)cc4)cc(C)nc23)cc1OC` [Ex. 5, N-[2-(4-chlorophenyl)ethyl]-3-(3,4-dimethoxyphenyl)-2,5-dimethyl-pyrazolo[1,5-a]pyrimidin-7-amine], the inhibition at 5000 µM in experiment [1] came to 68%; in experiment [3] it was 94%; in experiment [5] (read-out: antiviral effect, B1), 79%; in [9], 76%; in experiment [12] (read-out: antiviral effect, B4), 97%. Also, the inhibition at 5 µM in [2] (Conc. 5 µM, read-out: antiviral effect, LV012) came out at 18%; in experiment [10] (Conc. 5 µM, read-out: antiviral effect, HPeV-1), 22%; in experiment [8] (Conc. 5 µM, read-out: antiviral effect, EV30) it was 58%. In addition, the inhibition in experiment [11] is 80%. Besides, in [12] (read-out: % inh.), the inhibition at 0.25 µM is 71%.

Regarding `COc1ccc(-c2c(C)nn3c(Nc4ccon4)cc(C)nc23)cc1OC` [Ex. 95, N-[3-(3,4-dimethoxyphenyl)-2,5-dimethyl-pyrazolo[1,5-a]pyrimidin-7-yl]isoxazol-3-amine], in experiment [10] (setting [18]), the inhibition at 10 µM is 55%.

Consider `Cc1cc(NCc2ccccc2)n2ncc(-c3ccc(Cl)cc3)c2n1` [Ex. 25, N-benzyl-3-(4-chlorophenyl)-5-methyl-pyrazolo[1,5-a]pyrimidin-7-amine], for which the inhibition at 10 µM in experiment [10] (setting [18]) is 24%.

In the case of `Cc1ccc(-c2c(C)nn3c(NCc4ccccn4)cc(C)nc23)cc1` [Ex. 33, 2,5-dimethyl-3-(p-tolyl)-N-(2-pyridylmethyl)pyrazolo[1,5-a]pyrimidin-7-amine], the figures for the inhibition at 10000 µM in experiment [1], in [3] and in [9] were 58%, 92% and 81%, respectively. Also, the inhibition in [4] (Conc., read-out: antiviral effect, LV145) amounted to 69%; in [13] (Conc.), 0%; in [7] (Conc., read-out: antiviral effect, EMCV), 60%. In addition, the inhibition at 10 µM in experiment [10] (Conc. 10 µM, read-out: antiviral effect, HPeV-1) worked out at 13%; in experiment [8] (Conc. 10 µM, read-out: antiviral effect, EV30), 85%. Also, the inhibition at 1 µM in experiment [8] (EV30, Conc. 1.0 μM, read-out: % inh.) is 48%.

Turning to `COc1ccc(-c2c(C)nn3c(NCCCc4ccccc4)cc(C)nc23)cc1OC` [Ex. 7, 3-(3,4-dimethoxyphenyl)-2,5-dimethyl-N-(3-phenylpropyl)pyrazolo[1,5-a]pyrimidin-7-amine], the inhibition at 2500 µM in experiment [1] worked out at 80%; in [3] it was 68%; in experiment [5] (read-out: antiviral effect, B1) it was 77%; in experiment [9], 92%; in experiment [12] (read-out: antiviral effect, B4), 82%. In addition, the inhibition at 2.5 µM in experiment [2] (setting [19]) was found to be 14%; in experiment [4] (LV145, Conc. 2.5 μM), 54%; in [10] (setting [20]), 6%; in [8] (setting [17]), 89%.

As to `COc1ccc(-c2c(C)nn3c(Nc4ccccc4)cc(C)nc23)cc1OC` [Ex. 57, 3-(3,4-dimethoxyphenyl)-2,5-dimethyl-N-phenyl-pyrazolo[1,5-a]pyrimidin-7-amine], the inhibition at 10 µM in experiment [10] (setting [18]) came to 22%.

Take `COc1ccc(CCNc2cc(C)nc3c(-c4ccc(OC)c(OC)c4)c(C)nn23)c(OC)c1` [Ex. 12, 3-(3,4-dimethoxyphenyl)-N-[2-(2,4-dimethoxyphenyl)ethyl]-2,5-dimethyl-pyrazolo[1,5-a]pyrimidin-7-amine]: the inhibition at 2500 µM came to 73% in experiment [1]; 82% in [3]; 93% in [5] (read-out: antiviral effect, B1); 77% in experiment [12] (read-out: antiviral effect, B4). The inhibition at 2.5 µM stood at 60% in experiment [2] (setting [19]); 60% in experiment [2] (LV012, Conc. 2.5 μM, read-out: % inh.); 8% in experiment [10] (setting [20]); 84% in experiment [8] (setting [17]).

For the molecule `COc1ccc(-c2c(C)nn3c(Nc4ccc(Cl)cc4)cc(C)nc23)cc1OC` [Ex. 47, N-(4-chlorophenyl)-3-(3,4-dimethoxyphenyl)-2,5-dimethyl-pyrazolo[1,5-a]pyrimidin-7-amine], the inhibition at 10 µM in experiment [10] (setting [18]) was determined as 56%.

In the case of `COc1ccc(-c2c(C)nn3c(Nc4ccc(C(F)(F)F)cc4)cc(C)nc23)cc1OC` [Ex. 73, 3-(3,4-dimethoxyphenyl)-2,5-dimethyl-N-[4-(trifluoromethyl)phenyl]pyrazolo[1,5-a]pyrimidin-7-amine], the inhibition at 0.1 µM in experiment [12] (read-out: % inh.) was 44%.

Turning to `COc1ccc(-c2c(C)nn3c(NC4CCCCC4)cc(C)nc23)cc1OC` [Ex. 43, N-cyclohexyl-3-(3,4-dimethoxyphenyl)-2,5-dimethyl-pyrazolo[1,5-a]pyrimidin-7-amine], the inhibition at 10 µM in [10] (setting [18]) is 46%.

Consider `Cc1cc(NCc2ccc(F)cc2)n2nc(C)c(-c3ccc(Cl)c(Cl)c3)c2n1` [Ex. 103, 3-(3,4-dichlorophenyl)-N-[(4-fluorophenyl)methyl]-2,5-dimethyl-pyrazolo[1,5-a]pyrimidin-7-amine], for which the inhibition at 10 µM in [7] (EMCV) turned out to be 74%.

In the case of `COc1ccc(-c2c(C)nn3c(NCc4ccc(NC(C)=O)cc4)cc(C)nc23)cc1OC` [Ex. 77, N-[4-[[[3-(3,4-dimethoxyphenyl)-2,5-dimethyl-pyrazolo[1,5-a]pyrimidin-7-yl]amino]methyl]phenyl]acetamide], the inhibition at 0.1 µM in experiment [6] (read-out: % inh.) is 60%.

As to `Cc1cc(NC(C)c2ccccc2)n2nc(C)c(-c3ccc(F)cc3)c2n1` (stereo not drawn) [Ex. 3, 3-(4-fluorophenyl)-2,5-dimethyl-N-(1-phenylethyl)pyrazolo[1,5-a]pyrimidin-7-amine], the inhibition at 2.5 µM in experiment [7] (EMCV, Conc. 2.5 μM) turned out to be 92%.

As to `COc1ccc(-c2c(C)nn3c(NCc4ccc(OC(F)(F)F)cc4)cc(C)nc23)cc1OC` [Ex. 76, 3-(3,4-dimethoxyphenyl)-2,5-dimethyl-N-[[4-(trifluoromethoxy)phenyl]methyl]pyrazolo[1,5-a]pyrimidin-7-amine], the inhibition at 1 µM in experiment [6] (read-out: % inh.) was 100%.

Turning to `COc1ccc(-c2c(C)nn3c(NCc4ccc(C(F)(F)F)cc4)cc(C)nc23)cc1OC` [Ex. 72, 3-(3,4-dimethoxyphenyl)-2,5-dimethyl-N-[[4-(trifluoromethyl)phenyl]methyl]pyrazolo[1,5-a]pyrimidin-7-amine], the inhibition at 1000 µM in experiment [1] was 100%; in experiment [3] it was 99%; in [5] (read-out: antiviral effect, B1), 100%; in [6] (read-out: antiviral effect, B3), 99%; in experiment [9] it was 94%; in [12] (read-out: antiviral effect, B4), 91%. In addition, the inhibition at 1 µM in [2] (Conc. 1 µM, read-out: antiviral effect, LV012) came to 0%; in experiment [10] (Conc. 1 µM, read-out: antiviral effect, HPeV-1), 4%; in experiment [8] (Conc. 1 µM, read-out: antiviral effect, EV30), 100%. In experiment [12] (read-out: % inh.), the inhibition at 0.1 µM turned out to be 85%.

In the case of `COc1ccc(-c2c(C)nn3c(NCc4ccc(C(C)=O)cc4)cc(C)nc23)cc1OC` [Ex. 94, 1-[4-[[[3-(3,4-dimethoxyphenyl)-2,5-dimethyl-pyrazolo[1,5-a]pyrimidin-7-yl]amino]methyl]phenyl]ethanone], the inhibition in experiment [1] is 100%; in experiment [3] it was 56%; in experiment [5] (read-out: antiviral effect, B1), 100%; in [6] (read-out: antiviral effect, B3) it was 100%; in experiment [9], 100%. For the same molecule, the inhibition at 100 µM in experiment [2] (setting [14]) was 12%; in [4] (setting [15]), 0%; in experiment [13] (Conc. 0.1 mM), 100%; in experiment [7] (setting [16]), 0%; in experiment [8] (Conc. 0.1 mM, read-out: antiviral effect, EV30), 96%. The inhibition at 0.01 µM in [5] (read-out: % inh.) amounted to 100%.

As to `COc1ccc(-c2c(C)nn3c(NC4CCCC4)cc(C)nc23)cc1OC` [Ex. 41, N-cyclopentyl-3-(3,4-dimethoxyphenyl)-2,5-dimethyl-pyrazolo[1,5-a]pyrimidin-7-amine], the inhibition at 10 µM in [7] (EMCV) is 93%.
